# System: Transport facilitation protein genes
# Experiment: DNA chip mRNA expression in yeast, transport facilitation protein genes (Table 5)
# Type: cell-based, Saccharomyces cerevisiae S288C
# Procedure: Yeast (Saccharomyces cerevisiae S288C (α SUC2mal mel gap2 CUP1)) were incubated at 25° C. on YPD medium (yeast extract 1%, polypepton 2%, glucose 2%). One of toxic chemical substances was added to the cells at logarithmic growth phase, and the cells were further incubated for two hours. Cells were cultured without any chemical substance in the same condition, and were used as control. Concentrations of the chemical substances were defined to inhibit the growth of the yeast but not lead to death.
# After completion of the incubation, the culture was centrifuged to collect the cells. To the cells, sodium acetate buffer (50 mM sodium acetate, 10 mM EDTA, 1% SDS) was added, and the mixture was shaken at 65° C. for five minutes, followed by returning to room temperature, and obtaining the supernatant, of which the procedures were repeated two times. To the supernatant, ½ amount of a solution of phenol/chloroform was added, and the mixture was centrifuged to give a supernatant, which was added with an equal amount of chloroform, and the mixture was centrifuged to give a supernatant. To the supernatant, an equal amount of isopropanol containing 0.3 M sodium acetate was added, and the mixture was allowed to stand at room temperature for 30 minutes, after which the mixture was centrifuged to give a sediment of the whole RNAs. Seventy % ethanol was added to the sediment, and the mixture was again centrifuged to give a sediment, which was then dried and dissolved in water. mRNA was isolated from the whole RNAs as followings. In view of the fact that a poly A chain is attached to the 3′ terminus of mRNA, a polynucleotide having a poly T structure which was immobilized on the surface of latex beads was used to trap the mRNA, and then the mRNA was washed and eluted with spine column (Oligotex-dT30<Super>mRNA Purification Kit, Takara). Reverse transcription of the mRNA was conducted with a reverse transcriptase (Super Script II Reverse Transcriptase; catalogue No. 18064-014, GibcoBRL) using fluorescence-labeled nucleotides to give cDNAs that were introduced with Cy3-dUTP or Cy5-dUTP during the reverse transcription.
# The labeled cDNAs were dissolved in TE buffer (10mM Tris-HCl/1 mM EDTA, pH8.0), and the solution was dropped on the DNA chip containing the whole genes of yeast (DNA Chip Research Inc. Japan) so that the cDNAs were hybridized on the DNA chip at 65° C. for over 12 hours. The fluoresces intensity of the DNA chip was read with a scanner, and the ratio relative to the fluorescence intensity resulting from the absence of chemical substance was estimated as the following, which is shown in Tables 1 to 9: […]
compound,measurement,setting,value
"[Cl][Hg][Cl] [(3), HgCl2]",The level of expressed mRNA in the presence of chemical substance/The level of expressed mRNA in the absence of chemical substance,yeast gene YBL030C,4.5
same,The level of expressed mRNA in the presence of chemical substance/The level of expressed mRNA in the absence of chemical substance,yeast gene YBL099W,3.1
same,The level of expressed mRNA in the presence of chemical substance/The level of expressed mRNA in the absence of chemical substance,yeast gene YBR052C,1.5
same,The level of expressed mRNA in the presence of chemical substance/The level of expressed mRNA in the absence of chemical substance,yeast gene YBR068C,1.9
same,The level of expressed mRNA in the presence of chemical substance/The level of expressed mRNA in the absence of chemical substance,yeast gene YBR127C,2.2
same,The level of expressed mRNA in the presence of chemical substance/The level of expressed mRNA in the absence of chemical substance,yeast gene YBR132C,2.4
same,The level of expressed mRNA in the presence of chemical substance/The level of expressed mRNA in the absence of chemical substance,yeast gene YBR207W,0.8
same,The level of expressed mRNA in the presence of chemical substance/The level of expressed mRNA in the absence of chemical substance,yeast gene YBR293W,1.0
same,The level of expressed mRNA in the presence of chemical substance/The level of expressed mRNA in the absence of chemical substance,yeast gene YBR294W,0.9
same,The level of expressed mRNA in the presence of chemical substance/The level of expressed mRNA in the absence of chemical substance,yeast gene YBR295W,3.3
same,The level of expressed mRNA in the presence of chemical substance/The level of expressed mRNA in the absence of chemical substance,yeast gene YBR298C,1.6
same,The level of expressed mRNA in the presence of chemical substance/The level of expressed mRNA in the absence of chemical substance,yeast gene YCL025C,2.5
same,The level of expressed mRNA in the presence of chemical substance/The level of expressed mRNA in the absence of chemical substance,yeast gene YCL038C,1.4
same,The level of expressed mRNA in the presence of chemical substance/The level of expressed mRNA in the absence of chemical substance,yeast gene YCR024C-A,3.2
same,The level of expressed mRNA in the presence of chemical substance/The level of expressed mRNA in the absence of chemical substance,yeast gene YCR037C,0.8
same,The level of expressed mRNA in the presence of chemical substance/The level of expressed mRNA in the absence of chemical substance,yeast gene YCR098C,1.7
same,The level of expressed mRNA in the presence of chemical substance/The level of expressed mRNA in the absence of chemical substance,yeast gene YDL128W,2.1
same,The level of expressed mRNA in the presence of chemical substance/The level of expressed mRNA in the absence of chemical substance,yeast gene YDL198C,2.1
same,The level of expressed mRNA in the presence of chemical substance/The level of expressed mRNA in the absence of chemical substance,yeast gene YDL210W,2.7
same,The level of expressed mRNA in the presence of chemical substance/The level of expressed mRNA in the absence of chemical substance,yeast gene YDL245C,1.6
same,The level of expressed mRNA in the presence of chemical substance/The level of expressed mRNA in the absence of chemical substance,yeast gene YDR038C,3.1
same,The level of expressed mRNA in the presence of chemical substance/The level of expressed mRNA in the absence of chemical substance,yeast gene YDR039C,3.2
same,The level of expressed mRNA in the presence of chemical substance/The level of expressed mRNA in the absence of chemical substance,yeast gene YDR086C,1.2
same,The level of expressed mRNA in the presence of chemical substance/The level of expressed mRNA in the absence of chemical substance,yeast gene YDR270W,1.4
same,The level of expressed mRNA in the presence of chemical substance/The level of expressed mRNA in the absence of chemical substance,yeast gene YDR298C,2.6
same,The level of expressed mRNA in the presence of chemical substance/The level of expressed mRNA in the absence of chemical substance,yeast gene YDR342C,12.2
same,The level of expressed mRNA in the presence of chemical substance/The level of expressed mRNA in the absence of chemical substance,yeast gene YDR343C,20.6
same,The level of expressed mRNA in the presence of chemical substance/The level of expressed mRNA in the absence of chemical substance,yeast gene YDR345C,5.6
same,The level of expressed mRNA in the presence of chemical substance/The level of expressed mRNA in the absence of chemical substance,yeast gene YDR387C,1.2
same,The level of expressed mRNA in the presence of chemical substance/The level of expressed mRNA in the absence of chemical substance,yeast gene YDR497C,0.6
same,The level of expressed mRNA in the presence of chemical substance/The level of expressed mRNA in the absence of chemical substance,yeast gene YEL027W,3.4
same,The level of expressed mRNA in the presence of chemical substance/The level of expressed mRNA in the absence of chemical substance,yeast gene YEL063C,2.4
same,The level of expressed mRNA in the presence of chemical substance/The level of expressed mRNA in the absence of chemical substance,yeast gene YEL065W,1.2
same,The level of expressed mRNA in the presence of chemical substance/The level of expressed mRNA in the absence of chemical substance,yeast gene YER053C,1.9
same,The level of expressed mRNA in the presence of chemical substance/The level of expressed mRNA in the absence of chemical substance,yeast gene YFL011W,3.7
same,The level of expressed mRNA in the presence of chemical substance/The level of expressed mRNA in the absence of chemical substance,yeast gene YFL041W,1.4
same,The level of expressed mRNA in the presence of chemical substance/The level of expressed mRNA in the absence of chemical substance,yeast gene YFL050C,1.1
same,The level of expressed mRNA in the presence of chemical substance/The level of expressed mRNA in the absence of chemical substance,yeast gene YFL054C,1.4
same,The level of expressed mRNA in the presence of chemical substance/The level of expressed mRNA in the absence of chemical substance,yeast gene YGL006W,1.3
same,The level of expressed mRNA in the presence of chemical substance/The level of expressed mRNA in the absence of chemical substance,yeast gene YGL008C,3.1
same,The level of expressed mRNA in the presence of chemical substance/The level of expressed mRNA in the absence of chemical substance,yeast gene YGL104C,2.1
same,The level of expressed mRNA in the presence of chemical substance/The level of expressed mRNA in the absence of chemical substance,yeast gene YGL167C,1.6
same,The level of expressed mRNA in the presence of chemical substance/The level of expressed mRNA in the absence of chemical substance,yeast gene YGL255W,0.9
same,The level of expressed mRNA in the presence of chemical substance/The level of expressed mRNA in the absence of chemical substance,yeast gene YGR055W,12.0
same,The level of expressed mRNA in the presence of chemical substance/The level of expressed mRNA in the absence of chemical substance,yeast gene YGR065C,2.6
same,The level of expressed mRNA in the presence of chemical substance/The level of expressed mRNA in the absence of chemical substance,yeast gene YGR082W,2.2
same,The level of expressed mRNA in the presence of chemical substance/The level of expressed mRNA in the absence of chemical substance,yeast gene YGR096W,1.1
same,The level of expressed mRNA in the presence of chemical substance/The level of expressed mRNA in the absence of chemical substance,yeast gene YGR138C,1.0
same,The level of expressed mRNA in the presence of chemical substance/The level of expressed mRNA in the absence of chemical substance,yeast gene YGR191W,1.6
same,The level of expressed mRNA in the presence of chemical substance/The level of expressed mRNA in the absence of chemical substance,yeast gene YGR197C,2.5
